In patent US20230063462A1, “SULFONIMIDAMIDE COMPOUNDS AND COMPOSITIONS FOR TREATING CONDITIONS ASSOCIATED WITH NLRP ACTIVITY” (NOVARTIS AG, priority 2019, published 2023):
Like-named read-outs stand apart in the source and are kept apart here.

Key:
THP-1 cells [1] = assay: hTHP-1 assay: gramicidin-stimulated IL-1β detection in PMA-treated THP-1 cells; assay type: cell-based, human
Procedure: The following protocol is suitable for testing the activity of the compounds disclosed herein.
1. Experimental procedure • 1.1 Cell Culture • 1) Culture THP-1 cells in the complete RPMI-1640 medium with 10% FBS at 37° C., 5% CO2. • 2) Passage the cells every 3 days by inoculating 3×10^5 cells per ml. • 1.2 Compound Preparation • Prepare the 3-fold serial dilution of the compounds with DMSO in a 384-well LDV Microplate using TECAN EVO system to generate the compound source plate with 10 concentrations. […] HC: 100 μM CRID3 (MCC950)+5 μM gramicidin LC: 5 μM Gramicidin. • 1.5 IL-1β Detection • 1) Homogenize the 5× diluent #5 with a vortex and add 1 volume of stock solution in 4 volumes of distilled water. • 2) Thaw 20× stock solution of anti-IL1β-Cryptate-antibody and anti-IL1β XL-antibody. Dilute these two antibodies to 1× with detection buffer #3. • 3) Pre-mix the two ready-to-use antibody solutions just prior to use. • 4) Dispense 4 ul of pre-mixed Anti-IL1β antibodies working solution into all wells. • 5) Seal the plate and incubate overnight at 4° C. • 6) Read the cell plate using EnVison and plot Readout vs. the test compound concentration to calculate the IC50.
2. Data Analysis: • 1. IC50 of compounds can be calculated using the following formulas • Formula for IC50
% inhibition=100−100×[HCave-Readout/(HCave−LCave)] • 2. Fit the normalized data in a dose-response manner using XLfit, and calculate the compound concentration.

THP-1 cells [2] = assay: as above; assay type: cell-based, human; details: Table B2, 10% FBS
[3] = Homo sapiens, THP-1, Table B1, 2% fetal bovine serum, class symbol, read-out: hTHP-1 IC50
[4] = Table B1, 2% fetal bovine serum, numeric value, read-out: hTHP-1 IC50
[5] = Table B1, 2% fetal bovine serum, class symbol, read-out: hTHP-1 IC50
[6] = Homo sapiens, THP-1, Table B2, 10% FBS, class symbol, read-out: hTHP-1 IC50 in 10% FBS
[7] = Homo sapiens, THP-1, Table B2, 10% FBS, numeric value, read-out: hTHP-1 IC50 in 10% FBS
[8] = Homo sapiens, THP-1, Table B1, 2% fetal bovine serum, numeric value, read-out: hTHP-1 IC50

| SMILES | IC50 (THP-1 cells [1]; [4]) [nM] | IC50 (THP-1 cells [1]; [5]) [nM] | other results |
| --- | --- | --- | --- |
| CC(C)(O)c1ncc(S(=O)(=NC(=O)Nc2c3c(cc4c2CC4)CC3)NC#N)s1 (single isomer, unassigned) [Example 23, (S) or (R)-N-cyano-2-(2-hydroxypropan-2-yl)-N′-(tricyclo[6.2.0.03,6]deca-1,3(6),7-trien-2-ylcarbamoyl)thiazole-5-sulfonimidamide] | 38.9 |  | IC50 (THP-1 cells [1]; [3]): 8 to 40 nM |
| CC(C)(O)c1ncc(S(=O)(=NC(=O)Nc2c3c(cc4c2CC4)CC3)NC#N)s1 (single isomer, unassigned) [Example 24, (R) or (S)-N-cyano-2-(2-hydroxypropan-2-yl)-N′-(tricyclo[6.2.0.03,6]deca-1,3(6),7-trien-2-ylcarbamoyl)thiazole-5-sulfonimidamide] | 9.7 | 8 to 40 |  |
| CC(C)(O)c1ncc(S(=O)(=NC(=O)Nc2c3c(cc4c2CC4)CCC3)NC#N)s1 (single isomer, unassigned) [Example 25, (S) or (R)-N-cyano-2-(2-hydroxypropan-2-yl)-N′-((2,4,5,6-tetrahydro-1H-cyclobuta[f]inden-3-yl)carbamoyl)thiazole-5-sulfonimidamide] | 27.5 |  | IC50 (THP-1 cells [1]; [3]): 8 to 40 nM |
| CC(C)(O)c1ncc(S(=O)(=NC(=O)Nc2c3c(cc4c2CC4)CCC3)NC#N)s1 (single isomer, unassigned) [Example 26, (R) or (S)-N-cyano-2-(2-hydroxypropan-2-yl)-N′-((2,4,5,6-tetrahydro-1H-cyclobuta[f]inden-3-yl)carbamoyl)thiazole-5-sulfonimidamide] | 13.5 | 8 to 40 |  |
| CC(C)(O)c1ncc(S(=O)(=NC(=O)Nc2c3c(cc4c2CCC4)CCC3)NC#N)s1 (single isomer, unassigned) [Example 27, (S) or (R)-N-cyano-N′-((1,2,3,5,6,7-hexahydro-s-indacen-4-yl)carbamoyl)-2-(2-hydroxypropan-2-yl)thiazole-5-sulfonimidamide] | 92.8 | 40 to 200 |  |
| CC(C)(O)c1ncc(S(=O)(=NC(=O)Nc2c3c(cc4c2CCC4)CCC3)NC#N)s1 (single isomer, unassigned) [Example 28, (R) or (S)-N-cyano-N′-((1,2,3,5,6,7-hexahydro-s-indacen-4-yl)carbamoyl)-2-(2-hydroxypropan-2-yl)thiazole-5-sulfonimidamide] | 30.8 | 8 to 40 |  |
| CC(C)(O)c1coc(S(=O)(=NC(=O)Nc2c3c(cc4c2CCC4)CCC3)NC#N)c1 (single isomer, unassigned) [Example 29, (R) or (S)-N-cyano-N′-(1,2,3,5,6,7-hexahydro-s-indacen-4-ylcarbamoyl)-4-(2-hydroxypropan-2-yl)furan-2-sulfonimidamide] | 58.2 | 40 to 200 |  |
| CC(C)(O)c1coc(S(=O)(=NC(=O)Nc2c3c(cc4c2CCC4)CCC3)NC#N)c1 (single isomer, unassigned) [Example 30, (S) or (R)-N-cyano-N′-((1,2,3,5,6,7-hexahydro-s-indacen-4-yl)carbamoyl)-4-(2-hydroxypropan-2-yl)furan-2-sulfonimidamide] | 16.7 | 8 to 40 |  |
| CC(C)(O)c1cccc(S(=O)(=NC(=O)Nc2c3c(cc4c2CCC4)CCC3)NC#N)c1 (single isomer, unassigned) [Example 31, (S) or (R)-N-cyano-N′-((1,2,3,5,6,7-hexahydro-s-indacen-4-yl)carbamoyl)-3-(2-hydroxypropan-2-yl)benzenesulfonimidamide] | 33.8 | 8 to 40 |  |
| CC(C)(O)c1cccc(S(=O)(=NC(=O)Nc2c3c(cc4c2CCC4)CCC3)NC#N)c1 (single isomer, unassigned) [Example 32, (R) or (S)-N-cyano-N′-((1,2,3,5,6,7-hexahydro-s-indacen-4-yl)carbamoyl)-3-(2-hydroxypropan-2-yl)benzenesulfonimidamide] | 79.5 | 40 to 200 |  |
| N#CNS(=O)(=NC(=O)Nc1c2c(cc3c1CCC3)CCC2)c1ccccc1 (single isomer, unassigned) [Example 33, (S) or (R)-N-cyano-N′-((1,2,3,5,6,7-hexahydro-s-indacen-4-yl)carbamoyl)benzenesulfonimidamide] | 1530 | 1000 to 5000 |  |
| N#CNS(=O)(=NC(=O)Nc1c2c(cc3c1CCC3)CCC2)c1ccccc1 (single isomer, unassigned) [Example 34, (R) or (S)-N-cyano-N′-((1,2,3,5,6,7-hexahydro-s-indacen-4-yl)carbamoyl)benzenesulfonimidamide] | 355 | 200 to 1000 |  |
| NS(=O)(=NC(=O)Nc1c2c(nc(C3CC3)c1C1CC1)CCC2)c1ccn(C2CC2)n1 (single isomer, unassigned) [Example 878, (R) or (S)-1-cyclopropyl-N′-((2,3-dicyclopropyl-6,7-dihydro-5H-cyclopenta[b]pyridin-4-yl)carbamoyl)-1H-pyrazole-3-sulfonimidamide] |  |  | IC50 (THP-1 cells [2]; class symbol): 40 to 200 nM; IC50 (THP-1 cells [2]; numeric value): 88 nM |
| NS(=O)(=NC(=O)Nc1c2c(nc(C3CC3)c1C1CC1)CCC2)c1ccn(C2CC2)n1 (single isomer, unassigned) [Example 879, (S) or (R)-1-cyclopropyl-N′-((2,3-dicyclopropyl-6,7-dihydro-5H-cyclopenta[b]pyridin-4-yl)carbamoyl)-1H-pyrazole-3-sulfonimidamide] |  |  | IC50 (THP-1 cells [2]; class symbol): 1000 to 5000 nM; IC50 (THP-1 cells [2]; numeric value): 4430 nM |
| NS(=O)(=NC(=O)Nc1c2c(nc(C(F)(F)F)c1C1CC1)CCC2)c1nn(C2CC2)cc1F (single isomer, unassigned) [Example 880, (R) or (S)-1-cyclopropyl-N′-((3-cyclopropyl-2-(trifluoromethyl)-6,7-dihydro-5H-cyclopenta [b]pyridin-4-yl)carbamoyl)-4-fluoro-1H-pyrazole-3-sulfonimidamide] |  |  | IC50 (THP-1 cells [2]; class symbol): 40 to 200 nM; IC50 (THP-1 cells [2]; numeric value): 53.9 nM |
| NS(=O)(=NC(=O)Nc1c2c(nc(C(F)(F)F)c1C1CC1)CCC2)c1nn(C2CC2)cc1F (single isomer, unassigned) [Example 881, (S) or (R)-1-cyclopropyl-N′-((3-cyclopropyl-2-(trifluoromethyl)-6,7-dihydro-5H-cyclopenta [b]pyridin-4-yl)carbamoyl)-4-fluoro-1H-pyrazole-3-sulfonimidamide] |  |  | IC50 (THP-1 cells [2]; class symbol): 1000 to 5000 nM; IC50 (THP-1 cells [2]; numeric value): 1410 nM |
| NS(=O)(=NC(=O)Nc1c2c(nc(C3CC3)c1C1CC1)CCC2)c1nn(C2CC2)cc1F (single isomer, unassigned) [Example 882, (R) or (S)-1-cyclopropyl-N′-((2,3-dicyclopropyl-6,7-dihydro-5H-cyclopenta[b]pyridin-4-yl)carbamoyl)-4-fluoro-1H-pyrazole-3-sulfonimidamide] |  |  | IC50 (THP-1 cells [2]; class symbol): 40 to 200 nM; IC50 (THP-1 cells [2]; numeric value): 102 nM |
| NS(=O)(=NC(=O)Nc1c2c(nc(C(F)(F)F)c1C1CC1)CCC2)c1ccn(C2CC2)n1 (single isomer, unassigned) [Example 898, (R) or (S)-1-cyclopropyl-N′-((3-cyclopropyl-2-(trifluoromethyl)-6,7-dihydro-5H-cyclopenta [b]pyridin-4-yl)carbamoyl)-1H-pyrazole-3-sulfonimidamide] |  |  | IC50 (THP-1 cells [1]; [6]): 40 to 200 nM; IC50 (THP-1 cells [1]; [7]): 114 nM |
| CC(C)(O)c1ncc(S(=O)(=NC(=O)Nc2c3c(cc4c2CCC4)CCC3)NC#N)s1 (centres unmarked) [Example 3, N-cyano-N′-((1,2,3,5,6,7-hexahydro-s-indacen-4-yl)carbamoyl)-2-(2-hydroxypropan-2-yl)thiazole-5-sulfonimidamide] |  |  | IC50 (THP-1 cells [1]; [3]): 40 to 200 nM; IC50 (THP-1 cells [1]; [8]): 34 nM |
| CC(C)(O)c1nc(CO)c([S@](=O)(=NC(=O)Nc2c3c(nc4c2CCC4(C)C)CCC3)NC#N)s1 [Example 12, (S) or-N-cyano-N′-((3,3-dimethyl-1,2,3,5,6,7-hexahydrodicyclopenta[b,e]pyridin-8-yl)carbamoyl)-4-(hydroxymethyl)-2-(2-hydroxypropan-2-yl)thiazole-5-sulfonimidamide] |  |  | IC50 (THP-1 cells [1]; [3]): 40 to 200 nM; IC50 (THP-1 cells [1]; [8]): 419 nM |
| NS(=O)(=NC(=O)Nc1c2c(nc(C(F)(F)F)c1C1CC1)CCC2)c1ccn(C2CC2)n1 (centres unmarked) [Example 873, 1-Cyclopropyl-N′-((3-cyclopropyl-2-(trifluoromethyl)-6,7-dihydro-5H-cyclopenta[b]pyridin-4-yl)carbamoyl)-1H-pyrazole-3-sulfonimidamide] |  |  | IC50 (THP-1 cells [1]; [6]): 40 to 200 nM; IC50 (THP-1 cells [1]; [7]): 128 nM |
| NS(=O)(=NC(=O)Nc1c2c(nc(C3CC3)c1C1CC1)CCC2)c1ccn(C2CC2)n1 (centres unmarked) [Example 877, 1-Cyclopropyl-N′-((2,3-dicyclopropyl-6,7-dihydro-5H-cyclopenta[b]pyridin-4-yl)carbamoyl)-1H-pyrazole-3-sulfonimidamide] |  |  | IC50 (THP-1 cells [1]; [6]): 40 to 200 nM; IC50 (THP-1 cells [1]; [7]): 154 nM |
